Data reported in PMC5218480 (PLoS ONE, 2017).

Tested on: MV-4-11 cells
Assay: Gene expression microarray analysis (Affymetrix PrimeView) and GSEA
Format: cell-based, human
Design: RFU PODN (11730768_x_at) / Fold change /veh PODN (11730768_x_at) / RFU LINC00158 (11744669_a_at) / Fold change /veh LINC00158 (11744669_a_at) / RFU DUSP10 (11751237_a_at) / Fold change /veh DUSP10 (11751237_a_at) / RFU ID3 (11757404_x_at) / Fold change /veh ID3 (11757404_x_at) / RFU PLEKHG5 (11737974_s_at) / Fold change /veh PLEKHG5 (11737974_s_at) / RFU LRRC4B (11730491_at) / Fold change /veh LRRC4B (11730491_at) / RFU GIMAP4 (11747438_a_at) / Fold change /veh GIMAP4 (11747438_a_at) / RFU KRT8 (11758183_x_at) / Fold change /veh KRT8 (11758183_x_at) / RFU CNN1 (11734310_a_at) / Fold change /veh CNN1 (11734310_a_at) / RFU VPS37D (11726825_at) / Fold change /veh VPS37D (11726825_at) / RFU C10orf10 (11716522_x_at) / Fold change /veh C10orf10 (11716522_x_at) / RFU KIR2DL2 /// KIR2DL4 /// KIR2DL5A /// KIR2DL5B /// KIR2DS1 /// KIR2DS2 /// KIR2DS3 /// KIR2DS4 /// KIR3DL3 /// KIR3DL3 /// KIR3DS1 (11738374_at) / Fold change /veh KIR2DL2 /// KIR2DL4 /// KIR2DL5A /// KIR2DL5B /// KIR2DS1 /// KIR2DS2 /// KIR2DS3 /// KIR2DS4 /// KIR3DL3 /// KIR3DL3 /// KIR3DS1 (11738374_at) / RFU C1QL1 (11718748_at) / Fold change /veh C1QL1 (11718748_at) / RFU TMPRSS4 (11747572_a_at) / Fold change /veh TMPRSS4 (11747572_a_at) / RFU HAMP (11756126_x_at) / Fold change /veh HAMP (11756126_x_at) / RFU RNFT2 (11725882_a_at) / Fold change /veh RNFT2 (11725882_a_at) / RFU NR4A2 (11747474_a_at) / Fold change /veh NR4A2 (11747474_a_at) / RFU ABCC12 (11746883_a_at) / Fold change /veh ABCC12 (11746883_a_at) / RFU TMEM136 (11760407_x_at) / Fold change /veh TMEM136 (11760407_x_at) / RFU CLDN22 /// WWC2 (11732394_at) / Fold change /veh CLDN22 /// WWC2 (11732394_at) / RFU HLA-DPB1 (11760878_x_at) / Fold change /veh HLA-DPB1 (11760878_x_at) / RFU SPINT1 (11716480_a_at) / Fold change /veh SPINT1 (11716480_a_at) / RFU GAP43 (11754022_s_at) / Fold change /veh GAP43 (11754022_s_at) / RFU A4GNT (11735810_at) / Fold change /veh A4GNT (11735810_at) / RFU PRB3 (11715151_x_at) / Fold change /veh PRB3 (11715151_x_at) / RFU TUBB4B (11761932_at) / Fold change /veh TUBB4B (11761932_at) / RFU CAPN14 (11732068_a_at) / Fold change /veh CAPN14 (11732068_a_at) / RFU TMCC2 (11721928_a_at) / Fold change /veh TMCC2 (11721928_a_at) / RFU IRGQ (11745062_a_at) / Fold change /veh IRGQ (11745062_a_at) / RFU FAM174B (11720279_a_at) / Fold change /veh FAM174B (11720279_a_at) / RFU TMPRSS4 (11748680_a_at) / Fold change /veh TMPRSS4 (11748680_a_at) / RFU FAM212B (11763350_a_at) / Fold change /veh FAM212B (11763350_a_at) / RFU PLEKHG5 (11743358_a_at) / Fold change /veh PLEKHG5 (11743358_a_at) / RFU ZSCAN30 (11745921_a_at) / Fold change /veh ZSCAN30 (11745921_a_at) / RFU CMKLR1 (11741424_a_at) / Fold change /veh CMKLR1 (11741424_a_at) / RFU LOC101060620 /// MAPK8IP1 (11723275_at) / Fold change /veh LOC101060620 /// MAPK8IP1 (11723275_at) / RFU SPTSSB (11747773_x_at) / Fold change /veh SPTSSB (11747773_x_at) / RFU PRSS12 (11739890_at) / Fold change /veh PRSS12 (11739890_at) / RFU BIN1 (11741810_x_at) / Fold change /veh BIN1 (11741810_x_at) / RFU WNT11 (11732464_a_at) / Fold change /veh WNT11 (11732464_a_at) / RFU C10orf10 (11716521_a_at) / Fold change /veh C10orf10 (11716521_a_at) / RFU C5orf56 (11738089_at) / Fold change /veh C5orf56 (11738089_at) / RFU CYB561 (11721691_x_at) / Fold change /veh CYB561 (11721691_x_at) / RFU ANKRD19P (11752326_a_at) / Fold change /veh ANKRD19P (11752326_a_at) / RFU OR2T12 /// OR2T33 /// OR2T8 (11738714_s_at) / Fold change /veh OR2T12 /// OR2T33 /// OR2T8 (11738714_s_at) / RFU VCAN (11748164_a_at) / Fold change /veh VCAN (11748164_a_at) / RFU JSRP1 (11732532_at) / Fold change /veh JSRP1 (11732532_at) / RFU KRTAP10-11 (11738290_x_at) / Fold change /veh KRTAP10-11 (11738290_x_at) / RFU MYO3A (11730013_a_at) / Fold change /veh MYO3A (11730013_a_at) / RFU EBF3 (11725865_a_at) / Fold change /veh EBF3 (11725865_a_at) / RFU CAMK2N1 (11719241_x_at) / Fold change /veh CAMK2N1 (11719241_x_at) / RFU C5orf56 (11738088_a_at) / Fold change /veh C5orf56 (11738088_a_at) / RFU OLFML3 (11715873_a_at) / Fold change /veh OLFML3 (11715873_a_at) / RFU LOC100653217 /// NTM (11731650_a_at) / Fold change /veh LOC100653217 /// NTM (11731650_a_at) / RFU MAPK11 (11762145_a_at) / Fold change /veh MAPK11 (11762145_a_at) / RFU FIZ1 (11724087_x_at) / Fold change /veh FIZ1 (11724087_x_at) / RFU OASL (11726364_x_at) / Fold change /veh OASL (11726364_x_at) / RFU SOX15 (11748057_x_at) / Fold change /veh SOX15 (11748057_x_at) / RFU CD79A (11719716_a_at) / Fold change /veh CD79A (11719716_a_at) / RFU HIST1H1D (11736915_at) / Fold change /veh HIST1H1D (11736915_at) / RFU CASKIN2 (11723855_a_at) / Fold change /veh CASKIN2 (11723855_a_at) / RFU LOC730098 (11760151_x_at) / Fold change /veh LOC730098 (11760151_x_at) / RFU OR4N2 (11742367_at) / Fold change /veh OR4N2 (11742367_at) / RFU PRRT2 (11749266_a_at) / Fold change /veh PRRT2 (11749266_a_at) / RFU SNX32 (11753110_a_at) / Fold change /veh SNX32 (11753110_a_at) / RFU CDHR5 (11726645_a_at) / Fold change /veh CDHR5 (11726645_a_at) / RFU RCAN1 (11760418_a_at) / Fold change /veh RCAN1 (11760418_a_at) / RFU FAM167A (11723789_a_at) / Fold change /veh FAM167A (11723789_a_at) / RFU FAM26E (11764081_at) / Fold change /veh FAM26E (11764081_at) / RFU ISYNA1 (11749810_s_at) / Fold change /veh ISYNA1 (11749810_s_at) / RFU ACY1 (11761880_at) / Fold change /veh ACY1 (11761880_at) / RFU 11764098_at / Fold change /veh 11764098_at / RFU SAMD14 (11745864_x_at) / Fold change /veh SAMD14 (11745864_x_at) / RFU NPB (11741838_a_at) / Fold change /veh NPB (11741838_a_at) / RFU TMPRSS6 (11731388_a_at) / Fold change /veh TMPRSS6 (11731388_a_at) / RFU KRTAP10-2 (11738614_at) / Fold change /veh KRTAP10-2 (11738614_at) / RFU ARHGAP8 /// PRR5-ARHGAP8 (11727945_x_at) / Fold change /veh ARHGAP8 /// PRR5-ARHGAP8 (11727945_x_at) / RFU KRTAP5-7 /// NADSYN1 (11734609_at) / Fold change /veh KRTAP5-7 /// NADSYN1 (11734609_at) / RFU RASL12 (11751679_a_at) / Fold change /veh RASL12 (11751679_a_at) / RFU CDKN2B (11736163_a_at) / Fold change /veh CDKN2B (11736163_a_at) / RFU PRF1 (11729649_at) / Fold change /veh PRF1 (11729649_at) / RFU, ZNF638 /// ZNF638-IT1 / Fold change vs veh, ZNF638 /// ZNF638-IT1 / RFU, PANK3 / Fold change vs veh, PANK3 / RFU, SH3YL1 / Fold change vs veh, SH3YL1 / RFU, ZEB2 / Fold change vs veh, ZEB2 / RFU, NRIP1 / Fold change vs veh, NRIP1 / RFU, PTTG1IP / Fold change vs veh, PTTG1IP / RFU, CAPN2 / Fold change vs veh, CAPN2 / RFU, MED14 / Fold change vs veh, MED14 / RFU, SNORA58 / Fold change vs veh, SNORA58 / RFU, C1orf63 / Fold change vs veh, C1orf63 / RFU, LRRFIP1 / Fold change vs veh, LRRFIP1 / RFU, NDUFAF7 / Fold change vs veh, NDUFAF7 / RFU, SLC12A2 / Fold change vs veh, SLC12A2 / RFU, IBTK / Fold change vs veh, IBTK / RFU, ESF1 / Fold change vs veh, ESF1 / Fold change vs veh, TMEM50B / RFU, TAOK1 / Fold change vs veh, TAOK1 / RFU, ACBD3 / Fold change vs veh, ACBD3 / RFU, TMA16 / Fold change vs veh, TMA16 / RFU, RWDD3 / Fold change vs veh, RWDD3 / RFU, BCAT1 / Fold change vs veh, BCAT1 / RFU, EDEM3 / Fold change vs veh, EDEM3 / RFU, TMEM33 / Fold change vs veh, TMEM33 / RFU, WDR75 / Fold change vs veh, WDR75 / RFU, AHCTF1 / Fold change vs veh, AHCTF1 / RFU, TFRC / Fold change vs veh, TFRC / RFU, ZDHHC17 / Fold change vs veh, ZDHHC17 / RFU, NOM1 / Fold change vs veh, NOM1 / RFU, ARL8B / Fold change vs veh, ARL8B / RFU, ZBTB11 / Fold change vs veh, ZBTB11 / RFU, TAMM41 / Fold change vs veh, TAMM41 / RFU, KIAA1704 /// LOC100996395 / Fold change vs veh, KIAA1704 /// LOC100996395 / RFU, ING1 / Fold change vs veh, ING1 / RFU, TRMT61B / Fold change vs veh, TRMT61B / RFU, FUBP3 / Fold change vs veh, FUBP3 / RFU, TP53 / Fold change vs veh, TP53 / RFU, TNKS2 / Fold change vs veh, TNKS2 / RFU, ZFP14 / Fold change vs veh, ZFP14 / RFU, ACTR2 / Fold change vs veh, ACTR2 / RFU, PPP3R1 / Fold change vs veh, PPP3R1 / RFU, PIK3R1 / Fold change vs veh, PIK3R1 / RFU, HNRNPA1 / Fold change vs veh, HNRNPA1 / RFU, RNF170 / Fold change vs veh, RNF170 / RFU, ZNF28 / Fold change vs veh, ZNF28 / RFU, RNGTT / Fold change vs veh, RNGTT / RFU, OGT / Fold change vs veh, OGT / RFU, BRD1 / Fold change vs veh, BRD1 / RFU, MARS / Fold change vs veh, MARS / RFU, ZNF655 / Fold change vs veh, ZNF655 / RFU, FAHD1 / Fold change vs veh, FAHD1 / RFU, BDP1 / Fold change vs veh, BDP1 / RFU, LRRCC1 / Fold change vs veh, LRRCC1 / RFU, ARID1A / Fold change vs veh, ARID1A / RFU, ZNF146 / Fold change vs veh, ZNF146 / RFU, ZNF330 / Fold change vs veh, ZNF330 / RFU, GPN3 / Fold change vs veh, GPN3 / RFU, C9orf123 / Fold change vs veh, C9orf123 / RFU, N4BP2L2 / Fold change vs veh, N4BP2L2 / RFU, ARFIP1 / Fold change vs veh, ARFIP1 / RFU, FAM179B / Fold change vs veh, FAM179B / RFU, BCL10 / Fold change vs veh, BCL10 / RFU, UHRF1BP1L / Fold change vs veh, UHRF1BP1L / RFU, BET1 / Fold change vs veh, BET1 / RFU, CNOT2 / Fold change vs veh, CNOT2 / RFU, ZNF268 / Fold change vs veh, ZNF268 / Fold change vs veh, ZNF507 / RFU, DGCR2 / Fold change vs veh, DGCR2 / RFU, WDSUB1 / Fold change vs veh, WDSUB1 / Fold change vs veh, HSP90B1 /// MIR3652 / RFU, ADSS / Fold change vs veh, ADSS / RFU, GK / Fold change vs veh, GK / RFU, ZNF148 / Fold change vs veh, ZNF148 / RFU, TAF9 / Fold change vs veh, TAF9 / RFU, SLC1A5 / Fold change vs veh, SLC1A5 / RFU, SLMO2 / Fold change vs veh, SLMO2 / RFU, ABCC4 / Fold change vs veh, ABCC4 / RFU, LOC101060439 /// RAP1B / Fold change vs veh, LOC101060439 /// RAP1B / RFU, RFX7 / Fold change vs veh, RFX7 / RFU, GTPBP10 / Fold change vs veh, GTPBP10 / RFU, CNEP1R1 / Fold change vs veh, CNEP1R1 / RFU, BIVM-ERCC5 /// ERCC5 / Fold change vs veh, BIVM-ERCC5 /// ERCC5 / RFU, ILF3 / Fold change vs veh, ILF3 / RFU 11762660_at / Fold change /veh 11762660_at / RFU VCAN (11757783_s_at) / Fold change /veh VCAN (11757783_s_at) / RFU DDX43 (11728927_at) / Fold change /veh DDX43 (11728927_at) / RFU KRT8 (11758188_x_at) / Fold change /veh KRT8 (11758188_x_at) / RFU NKD1 (11759106_at) / Fold change /veh NKD1 (11759106_at) / RFU SRD5A1 (11742802_a_at) / Fold change /veh SRD5A1 (11742802_a_at) / RFU TPSAB1 /// TPSB2 (11721975_s_at) / Fold change /veh TPSAB1 /// TPSB2 (11721975_s_at) / RFU GSTM3 (11746129_a_at) / Fold change /veh GSTM3 (11746129_a_at) / RFU IL23R (11737362_x_at) / Fold change /veh IL23R (11737362_x_at) / RFU TMEM51 (11727254_a_at) / Fold change /veh TMEM51 (11727254_a_at) / RFU PIWIL2 (11732686_x_at) / Fold change /veh PIWIL2 (11732686_x_at) / RFU ORM1 (11744905_x_at) / Fold change /veh ORM1 (11744905_x_at) / RFU CCDC152 (11743942_at) / Fold change /veh CCDC152 (11743942_at) / RFU ECM1 (11717891_a_at) / Fold change /veh ECM1 (11717891_a_at) / RFU IL23R (11748794_a_at) / Fold change /veh IL23R (11748794_a_at) / RFU TNFAIP8L3 (11732012_x_at) / Fold change /veh TNFAIP8L3 (11732012_x_at) / RFU MBOAT4 (11741988_at) / Fold change /veh MBOAT4 (11741988_at) / RFU 11764193_at / Fold change /veh 11764193_at / RFU TMEM53 (11763286_at) / Fold change /veh TMEM53 (11763286_at) / RFU MAGEB2 (11727129_at) / Fold change /veh MAGEB2 (11727129_at) / RFU TMEM200A (11744735_a_at) / Fold change /veh TMEM200A (11744735_a_at) / RFU CCDC152 (11751479_a_at) / Fold change /veh CCDC152 (11751479_a_at) / RFU FAM211A (11726209_a_at) / Fold change /veh FAM211A (11726209_a_at) / RFU RGS16 (11746705_a_at) / Fold change /veh RGS16 (11746705_a_at) / RFU VCAN (11755009_s_at) / Fold change /veh VCAN (11755009_s_at) / RFU RHOB (11743442_s_at) / Fold change /veh RHOB (11743442_s_at) / RFU RGS16 (11720943_a_at) / Fold change /veh RGS16 (11720943_a_at) / RFU RGS16 (11720944_at) / Fold change /veh RGS16 (11720944_at) / RFU, VPS4B / Fold change vs veh, VPS4B / RFU, CREB1 / Fold change vs veh, CREB1 / RFU, DNAJC13 / Fold change vs veh, DNAJC13 / RFU, GNAQ / Fold change vs veh, GNAQ / RFU, CDK5R1 / Fold change vs veh, CDK5R1 / RFU, ZRANB3 / Fold change vs veh, ZRANB3 / RFU, CUL4A / Fold change vs veh, CUL4A / RFU, CCNY / Fold change vs veh, CCNY / RFU, UFL1 / Fold change vs veh, UFL1 / RFU, COG3 / Fold change vs veh, COG3 / RFU, DIAPH2 / Fold change vs veh, DIAPH2 / RFU, SKA2 / Fold change vs veh, SKA2 / RFU, AFF3 / Fold change vs veh, AFF3 / RFU, LMF1 / Fold change vs veh, LMF1 / RFU, IPO11 / Fold change vs veh, IPO11 / RFU, DFFB / Fold change vs veh, DFFB / RFU, FOXP1 / Fold change vs veh, FOXP1 / RFU, CARD8 / Fold change vs veh, CARD8 / RFU, STRN3 / Fold change vs veh, STRN3 / RFU, ADK / Fold change vs veh, ADK / RFU, RASSF2 / Fold change vs veh, RASSF2 / RFU, WIPF1 / Fold change vs veh, WIPF1 / RFU, LARP1B / Fold change vs veh, LARP1B / RFU, RASA1 / Fold change vs veh, RASA1 / RFU, RB1 / Fold change vs veh, RB1 / RFU, PPFIA1 / Fold change vs veh, PPFIA1 / RFU, MAT2A / Fold change vs veh, MAT2A / RFU, CCT5 / Fold change vs veh, CCT5 / RFU, WDR92 / Fold change vs veh, WDR92 / RFU, CUX1 / Fold change vs veh, CUX1 / RFU, TTC7A / Fold change vs veh, TTC7A / RFU, TMEM135 / Fold change vs veh, TMEM135 / RFU, DEPTOR / Fold change vs veh, DEPTOR / RFU, CPM / Fold change vs veh, CPM / RFU, DNAJB6 / Fold change vs veh, DNAJB6 / RFU, CACNA2D3 / Fold change vs veh, CACNA2D3 / RFU, DTX4 / Fold change vs veh, DTX4 / RFU, TFCP2 / Fold change vs veh, TFCP2 / RFU, GMCL1 /// GMCL1P1 / Fold change vs veh, GMCL1 /// GMCL1P1 / RFU, AEBP2 / Fold change vs veh, AEBP2 / RFU, SNHG1 /// SNORD22 /// SNORD25 /// SNORD26 /// SNORD27 /// SNORD28 /// SNORD29 /// SNORD31 / Fold change vs veh, SNHG1 /// SNORD22 /// SNORD25 /// SNORD26 /// SNORD27 /// SNORD28 /// SNORD29 /// SNORD31 / Fold change (Aza/veh), C12orf56 (ProbeSet 11735607_a_at) / Fold change (ACY-1035/veh), C12orf56 (ProbeSet 11735607_a_at) / Fold change (Aza/veh), FGFR1OP (ProbeSet 11751329_s_at) / Fold change (ACY-1035/veh), FGFR1OP (ProbeSet 11751329_s_at) / Fold change (Aza/veh), VPS36 (ProbeSet 11739960_a_at) / Fold change (ACY-1035/veh), VPS36 (ProbeSet 11739960_a_at) / RFU SYPL1 (11715823_x_at) / Fold change /veh SYPL1 (11715823_x_at) / RFU IGFBP7 (11715501_s_at) / Fold change /veh IGFBP7 (11715501_s_at) / RFU REEP3 (11722064_at) / Fold change /veh REEP3 (11722064_at) / RFU IGLL1 (11728026_x_at) / Fold change /veh IGLL1 (11728026_x_at): dose or concentration left out as unconfirmed
Conditions: ProbeSet 11743882_a_at; LIST D

For `Nc1ccc(-c2cccs2)cc1NC(=O)c1ccc2c(c1)cc(C1CC1)n2CCN1CCOCC1` [ACY-1035], which “RFU, STRN3” value is on record?
The value was 114.91 RFU.
